molecular target: T1, Human FAAH (Homo sapiens, UniProt O00519); assay: Human FAAH lysate assay (CHO cell lysate, AAMCA fluorescent substrate); format: biochemical; conditions: FAAH inhibition, CHO cell lysate expressing human FAAH; read-out: Human Lysate
T1 construct: The full length FAAH was subcloned into the mammalian expression vector, pcDEF.neo; expressed in transfected cells
T1 sequence (O00519 1-579): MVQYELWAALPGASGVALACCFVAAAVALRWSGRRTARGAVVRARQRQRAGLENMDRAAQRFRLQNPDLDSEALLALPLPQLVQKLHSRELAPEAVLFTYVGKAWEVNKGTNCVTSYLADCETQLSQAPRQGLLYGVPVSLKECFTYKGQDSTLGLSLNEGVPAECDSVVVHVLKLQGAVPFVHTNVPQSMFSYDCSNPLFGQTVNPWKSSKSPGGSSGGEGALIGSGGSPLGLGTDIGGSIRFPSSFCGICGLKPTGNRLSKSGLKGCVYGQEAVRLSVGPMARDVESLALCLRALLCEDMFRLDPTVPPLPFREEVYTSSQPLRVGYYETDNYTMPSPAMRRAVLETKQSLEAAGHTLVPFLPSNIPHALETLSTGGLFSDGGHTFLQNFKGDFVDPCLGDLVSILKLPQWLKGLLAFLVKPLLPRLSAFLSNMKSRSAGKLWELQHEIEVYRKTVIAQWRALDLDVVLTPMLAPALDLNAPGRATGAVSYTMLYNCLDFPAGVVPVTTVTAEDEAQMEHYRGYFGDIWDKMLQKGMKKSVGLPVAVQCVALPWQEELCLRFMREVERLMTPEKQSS
Text: To assist in assay development stable cell lines for human, murine and rat full length FAAH were developed. Human FAAH cDNA (Accession No: NM-001441.1) was purchased from Origene (Rockville, Md.). The full length FAAH was subcloned into the mammalian expression vector, pcDEF.neo, using XbaI and EcoRI restriction sites and used for stable cell line generation. CHO cells expressing FAAH were used to prepare either crude cell lysate or microsome fractions. To harvest cells, tissue culture media was decanted, the monolayer washed three times with Ca^++Mg^++ free PBS and cells recovered after 15 min in enzyme free dissociation media (Millipore Corp, Billerica, Mass.). Cells were collected by centrifuging at 2000 rpm for 15 min. and the cell pellet re-suspended with 50 mM HEPES (pH 7.4) containing 1 mM EDTA and the protease inhibitors aprotinin (1 mg/ml) and leupeptin (100 μM). […] The pellet containing FAAH-enriched microsomes was re-suspend in 50 mM HEPES, (pH 7,4) 1 mM EDTA, and any remaining DNA sheared by passage of material through a 23 gauge needle and aliquots of enzyme were store at -80° C. prior to use. […] (American Radiolabeled Chemicals; 1 mCi/ml) with FAAH (Life Sciences (1995), 56, 1999-2005 and Journal of Pharmacology and Experimented Therapeutics (1997), 283, 729-734), Analytical. Biochemistry (2003), 318, 270-5. […] Analytical. Biochemistry (2005). 343, 143-51 […] Fluorescent release as a measure of FAAH activity was monitored by reading the plate in a CytoFluor Multiplate Reader ([…]). Whole cell assay is conducted with cells harvested after rinsing tissue culture flasks three times with Ca^++Mg^++ free PBS, incubating for 10 min in Enzyme free dissociation media and centrifuging for 5 minutes at 1,000 rpm in table top centrifuge. Cells are resuspended in assay buffer at desired cell number in (4×10^4 cells/assay in 96-well format; 1×10^4 cells/assay in 384-well format) and assayed as described. […] The reaction was terminated by addition of 2 volumes of chloroform:methanol (1:1) and mixed by vortexing. […] K., et al. A fluorescence-based assay for fatty acid amide hydrolase compatible with high-throughput screening. Anal. Biochem. 343:143-51 (2005) • Wilson S. J., et l. A high-throughput-compatible assay for determining the activity of fatty acid amide hydrolase. Anal Biochem. 318:270-5 (2003).

Row | SMILES | IC50 [nM]
1 | Cn1c(-c2ccccn2)nc(-c2ccc(C(O)C(F)F)cc2)c1Sc1ccc(Cl)cc1 (stereo not drawn) [Ex 57, 1-(4-{5-[(4-Chlorophenyl)thio]-1-methyl-2-pyridin-2-yl-1H-imidazol-4-yl}phenyl)-2,2-difluoroethanol] | 21.4
2 | Cn1c(C2CCC2)nc(-c2ccc(S(C)(=O)=O)cc2)c1Sc1ccc(Cl)cc1 [Ex 14] | 26.5
3 | Cn1c(-c2ccccc2)nc(-c2ccc(C#N)cc2)c1Sc1ccc(Cl)cc1 [Ex 2, 4-{5-[(4-Chlorophenyl)thio]-1-methyl-2-phenyl-1H-imidazol-4-yl}benzonitrile] | 21.2
4 | CS(=O)(=O)c1ccc(-c2nc(C3CCC3)[nH]c2Sc2ccc(Cl)cc2)cc1 [Ex 13] | 946

Further compounds by falling IC50, results first:

Row | IC50 [nM] | SMILES
5 | 363 | Cn1cnc(-c2ccc(C#N)cc2)c1Sc1ccc(Cl)cc1 [Ex 33, 4-{5-[(4-chlorophenyl)thio]-1-methyl-1H-imidazol-4-yl}benzonitrile]
6 | 74.4 | CC(C)c1nc(-c2ccc(S(C)(=O)=O)cc2)c(Sc2ccc(Cl)cc2)n1C [Ex 29, 5-[(4-Chlorophenyl)thio]-2-isopropyl-1-methyl-4-[4-(methylsulfonyl)phenyl]-1H-imidazole]
7 | 33.7 | Cn1c(-c2ccccn2)nc(-c2ccc(N)cc2)c1Sc1ccc(Cl)cc1 [Ex 98, 4-{5-[(4-Chlorophenyl)thio]-1-methyl-2-pyridin-2-yl-1H-imidazol-4-yl}aniline]
8 | 26.9 | Cn1c(-c2ccccn2)nc(-c2ccc(-c3nnco3)cc2)c1Sc1ccc(Cl)cn1 [Ex 36, 5-Chloro-2-({1-methyl-4-[4-(1,3,4-oxadiazol-2-yl)phenyl]-2-pyridin-2-yl-1H-imidazol-5-yl}thio)pyridine]
9 | 16.6 | Cn1c(-c2ccccn2)nc(-c2ccc(-n3ccnn3)cc2)c1Sc1ccc(Cl)cc1 [Ex 66]

Reference: patent US8455528B2, “Imidazole derivatives useful as inhibitors of FAAH” (Merck Sharp & Dohme Corp., priority 2008, dated 2013)
